Patent US7981939B2, “Application of 2-bromide-isovanillin for the manufacture of a medicament for anti-cancer or/and radiation/chemotherapy sensitization” (Institute of Radiation Medicine, Academy of Military …, priority 2005, dated 2011)

Assays:
[1] = test system: human liver cancer cell line 7402; experiment: G2/M arrest by flow cytometry, 7402; assay type: cell-based; details: 7402, 40 μmol/L, 24 hrs
Protocol: (§1) By way of example, human liver cancer cell lines HepG2 and 7402, human ovarian cancer cell lines HOC8 and A2780, human glioma cell line BT325, lung cancer cell line A549, brain metastatic lung cancer cell line BT72 and prostate cancer cell line IB-4 were used to investigate the G2/M arresting of solid tumor cells of different tissue origins by 2-bromo-isovanillin as measured by the ratio of cells at G2/M phase. Specifically, the cancer cells were divided into two groups, and were treated with 0 or 40 μmol/L 2-bromo-isovanillin for 24 hours. Then the cells were harvested and analyzed for changes in cell cycle and cell apoptosis by flow cytometry.

[2] = target: T1, nuclear protein DNA-PKcs serine/threonine protein kinase (Homo sapiens, UniProt P78527); experiment: DNA-PKcs kinase activity in nuclear protein of treated HepG2 cells; assay type: cell-based; details: 24 hrs
T1 construct: adding nuclear proteins to the solid phase reaction system; endogenous in cells; host or cells: HepG2 human liver cancer cells (nuclear protein extract)
Protocol: The activity of nuclear protein DNA-PKcs serine/threonine protein kinase in human liver cancer cells HepG2 treated with 0, 10, 20, 40, 100 μmol/L 2-bromo-isovanillin for 24 hrs was determined by using […] DNA dependent protein kinase assay kit (Promega), according to the manufacturer's instructions, and the treatment with 100 μmol/L vanillin for the same period of time served as control. Basically, the assay was carried out by immobilizing the phosphorylation substrate specific to DNA-PKcs, i.e., a peptide derived from p53 protein onto a cellulose membrane, adding nuclear proteins to the solid phase reaction system, isotopically labeling the substrate by phosphorylation using γ-^32P ATP, removing non-specific signals after the isotope labeling, and visualizing the kinase activity upon X-ray film developing.

[3] = test system: spindle structure in HepG2 cells; experiment: Spindle structure by immunofluorescent labeling of tubulin, HepG2; assay type: cell-based, human; details: HepG2, 40 μmol/L, 24 hrs
Text: 3. […] The influence of 2-bromo-isovanillin on the spindle structure in HepG2 cells was further studied by means of in situ immunofluorescence hybridization by immunofluorescent labeling of tubulin. […] The cells with impaired spindle function could not undergo normal division, thereby leading to rapid cell death, i.e., mitotic catastrophe.

[4] = test system: human cervical cancer cell line HeLa; experiment: Clonogenic assay, 6 days of continuous action, HeLa; assay type: cell-based
Protocol: (§2) Human cervical cancer cell line HeLa, human liver cancer cell line HepG2/7221/7402, human ovarian cancer cell line HOC8/A2780, human glioma cell line BT325, lung cancer cell line A549, brain metastatic lung cancer cell line BT72 and normal human hepatic cell line LO2 were all grown in DMEM liquid medium supplemented with 10% newborn calf serum. Human leukemia cell line Jurkat was grown in 1640 medium supplemented with 10% newborn calf serum. The above cell lines were cultured in a CO2 incubator at 5% CO2 at 37° C.
(§3) By way of example, human cervical cancer cell line HeLa, lung cancer cell line A549, and ovarian cancer cell lines A2780 and HOC8 were used to determine the killing of cancer cells by 2-bromo-isovanillin for 6 days. Specifically, four groups were formed according to the type of the cancer cells. The cancer cells were diluted as appropriate, and were respectively plated into Petri dishes with a diameter of […], the amount of the cells adjusted depending on the concentration of 2-bromo-isovanillin to be added. Once adherence was achieved, each cell type received dosages of 0, 5, 10, 15, 20, 25, 30 and 35 μmol/L in triplicates. After 6 days of continuous action, the medium was replaced by a drug-free DMEM liquid medium. […] Then the cell clones were counted. The experimental data were expressed as the mean of 2-4 experiments and were plotted as a growth curve of cancer cells.

[5] = test system: ovarian cancer cell line HOC8; experiment: Clonogenic assay, 6 days of continuous action, HOC8; assay type: cell-based, human
Protocol: as §2, §3

[6] = test system: human liver cancer cell line HepG2; experiment: G2/M arrest and apoptosis by flow cytometry, HepG2; assay type: cell-based; details: HepG2, 40 μmol/L
Protocol: as §1
2. In a separate experiment, the cell cycle profile and apoptosis rate of human liver cancer cell line HepG2 treated with 40 μmol/L 2-bromo-isovanillin for different periods of time (0-50 h) were studied, and the results are shown in FIGS. 7A and 7B (1, 2, 3, 4 respectively represent the apoptosis results for treatment with 40 μmol/L 2-bromo-isovanillin for 0, 8, 16, 24 hrs).

[7] = test system: human cervical cancer cell line HeLa; experiment: Radiosensitizing activity with 2 Gy Co-60 γ radiation, HeLa, MTT assay; assay type: cell-based
Protocol: By way of example, human cervical cancer cell line HeLa was used to determine the radiosensitizing activity of 2-bromo-isovanillin.
Specifically, human cervical cancer cells HeLa were divided into six groups, diluted as appropriate, and plated into Petri dishes with a diameter of […]. The amount of cells plated in each Petri dish was 300/500 for 0 Gy group (without Co-60 γ radiation), or 400/800 for 2 Gy group. Once adherence was achieved, three groups were treated with 20 μmol/L 2-bromo-isovanillin (BVAN3208) for 0, 4 and 18 hrs, respectively and then irradiated with Co-60 γ ray at 2 Gy, followed by two weeks under conventional culturing conditions. As to the other three groups, one group was treated with 20 μmol/L 2-bromo-isovanillin (BVAN3208) for 72 hrs and then cultured for two weeks under conventional conditions, one group received irradiation with Co-60 γ ray at 2 Gy and then was cultured for two weeks under conventional conditions, and the remaining group as control received no treatment at all and was cultured for two weeks under conventional conditions. 48 hrs after irradiation with Co-60 γ ray, using MTT assay, the optical density (OD) values at 490 nm were measured and recorded, wherein the magnitude of OD value is indicative of cell number, i.e., cell proliferation. The results are shown in FIG. 5, wherein C represents the control group, R(2 Gy) represents the group treated with Co-60 γ ray alone, BVAN3208 represents the group treated with 20 μmol/L 2-bromo-isovanillin alone, and BVAN3208/0 h R, BVAN3208/4 h R and BVAN3208/18 h R respectively represent the groups treated with 20 μmol/L 2-bromo-isovanillin for 0, 4, 18 hrs before irradiation with Co-60 γ ray. The survival rates of the cancer cells treated with 2 Gy Co-60 γ ray radiation or 20 μmol/L 2-bromo-isovanillin for 72 hrs were 76% and 70%, respectively.

In the case of `COc1ccc(C=O)c(Br)c1O` [2-bromo-isovanillin, 2-bromo-3-hydroxy-4-methoxybenzaldehyde], the cell cycle effect [1] is reported as “arrested at G2/M phase”, the “effect on DNA-PKcs kinase activity” value ([2]; HepG2, 20 μmol/L) is reported as “significantly inhibited” and the “inhibitory effect on DNA-PKcs kinase activity” value ([2]; HepG2, 40-100 μmol/L, compared with 20 μmol/L) is reported as “more remarkable”. The “M phase cells with multiple centrosomes or destroyed spindle structure” value [3] was “more than 65%”, the “ratio of cells at mitotic phase” value [3] was “significantly increased” and the survival rate ([4]; 20 μmol/L) was “lower than 10%”. The proliferation ([4]; 30 μmol/L) was “completely inhibited”, the survival rate ([5]; HOC8, 20 μmol/L) was “lower than 10%” and the proliferation ([5]; HOC8, 30 μmol/L) was “completely inhibited”. For the same compound, the “treatment time after which obvious G2/M arrest began to appear” value [6] was 4 h, the “treatment time of peak G2/M arrest” value [6] was 8 to 16 h and the cell cycle effect ([6]; 24 hrs) was “arrested at G2/M phase”. The cell apoptosis ([6]; after 8 hrs of treatment) was “significantly increased”, the “cells at G0/G1 phase” value ([6]; at the time of G2/M arrest) was “significantly decreased” and the survival rate ([7]; 20 μmol/L for 72 hrs alone, no radiation) was 70%. For the same compound, the cell survival rate ([7]; 20 μmol/L, 2 Gy radiation 4 hrs after administration) was “about 51%”, the cell survival rate ([7]; 20 μmol/L, 2 Gy radiation 18 hrs after administration) was about 21% and the cell survival rate ([7]; 20 μmol/L, 2 Gy radiation immediately (0 h) after administration) was “about 51%”. The sensitization ratio ([7]; 20 μmol/L, pretreatment 18 hrs prior to 2 Gy radiation) was 3.32.
